“Also recorded” adds a separate entry of the source. One block for each molecule: values may come before it. Where a SMILES comes first, the peptide text is derived from it. The star is where a group is joined. pNA = O=[N+]([O-])c1ccc(N*)cc1
Assays:
[1] = biological target: T1, aminopeptidase of L. lactis subsp. cremoris Wg2 (Lactococcus lactis subsp. cremoris, UniProt P0C2T8); assay: Hydrolysis of lysyl-p-nitroanilide / X-p-nitroanilide substrates (release of p-nitroanilide at 410 nm); type: biochemical; set-up: The cell extract obtained after sonication and centrifugation of L. lactis subsp. cremoris Wg2; endogenous in cells; host or cells: Proteinase-negative variant of Lactococcus lactis subsp. cremoris Wg2; Enzyme purified from the cell-free extract by DEAE-Sephacel, phenyl-Sepharose, Sephadex G-100 SF and MA7P HPLC; not recombinant; conditions: relative hydrolysis velocity of X-p-nitroanilide substrates
T1 sequence (P0C2T8 1-846): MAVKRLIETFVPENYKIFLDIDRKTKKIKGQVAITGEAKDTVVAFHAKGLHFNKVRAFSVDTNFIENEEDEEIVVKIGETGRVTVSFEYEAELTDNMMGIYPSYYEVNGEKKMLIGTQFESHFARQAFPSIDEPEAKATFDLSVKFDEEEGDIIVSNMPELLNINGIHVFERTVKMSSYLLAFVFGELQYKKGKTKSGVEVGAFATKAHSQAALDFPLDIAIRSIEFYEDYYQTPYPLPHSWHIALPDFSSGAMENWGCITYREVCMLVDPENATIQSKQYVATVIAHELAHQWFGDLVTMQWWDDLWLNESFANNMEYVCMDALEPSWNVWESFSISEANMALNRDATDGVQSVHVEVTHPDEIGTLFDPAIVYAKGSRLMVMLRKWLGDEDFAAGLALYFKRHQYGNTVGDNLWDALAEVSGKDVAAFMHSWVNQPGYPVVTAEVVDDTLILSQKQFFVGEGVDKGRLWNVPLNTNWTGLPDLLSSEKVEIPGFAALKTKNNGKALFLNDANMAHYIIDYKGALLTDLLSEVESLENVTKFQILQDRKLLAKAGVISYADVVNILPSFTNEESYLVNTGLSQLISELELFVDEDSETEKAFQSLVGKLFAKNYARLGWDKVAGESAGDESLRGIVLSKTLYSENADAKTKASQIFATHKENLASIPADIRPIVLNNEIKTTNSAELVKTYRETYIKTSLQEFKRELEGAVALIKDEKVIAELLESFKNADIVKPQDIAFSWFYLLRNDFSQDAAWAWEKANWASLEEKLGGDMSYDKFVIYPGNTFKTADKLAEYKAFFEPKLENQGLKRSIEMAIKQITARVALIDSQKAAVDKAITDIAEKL
Procedure: Hydrolysis of lysyl-p-nitroanilide was determined by the method of Exterkate, Neth. Milk Diary J. 29, 1975, 303-318. A 2 mM solution of lysyl-p-nitroanilide was incubated for 15 minutes with a suitable amount of enzyme. The reaction was stopped by adding acetic acid up to a final concentration of 10%, and the amount of p-nitroanilide was measured at 410 nm (Hitachi U-1100 spectrophotometer).
All measurements of enzyme activities were carried out at 30°C in 20 mM HEPES pH 7, unless specified.
The highest activity was found for lysyl-p-nitroanilide and to a lesser extent for leucyl-p-nitroanilide. […] The affinity of the enzyme for lysyl-p-nitroanilide was determined.

[2] = biological target: T1, aminopeptidase of L. lactis subsp. cremoris Wg2; type: biochemical
[3] = biological target: T1, aminopeptidase of L. lactis subsp. cremoris Wg2; assay: Hydrolysis of lysyl-p-nitroanilide / X-p-nitroanilide substrates (release of p-nitroanilide at 410 nm); conditions: for Relative activity (%): relative hydrolysis velocity of X-p-nitroanilide substrates
[4] = biological target: T1, aminopeptidase of L. lactis subsp. cremoris Wg2; assay: Hydrolysis of peptides detected by thin-layer chromatography (TLC); type: biochemical; set-up: The cell extract obtained after sonication and centrifugation of L. lactis subsp. cremoris Wg2; endogenous in cells; host or cells: Proteinase-negative variant of Lactococcus lactis subsp. cremoris Wg2; Enzyme purified from the cell-free extract by DEAE-Sephacel, phenyl-Sepharose, Sephadex G-100 SF and MA7P HPLC; not recombinant; key to Activity: + : hydrolysis; - : no hydrolysis to be observed; conditions: for hydrolysis of peptides (in words): peptide as substrate of the aminopeptidase; for Activity: substrate specificity, 2 mM substrate, 20 mM HEPES pH 7, 60 min. at 30°C, TLC
Procedure: Hydrolysis of several peptides was detected by thin-­layer chromatography (TLC). Peptidase activity was determined as follows: the reaction mixture containing 2 mM substrate in 20 mM 4-(2-hydroxyethyl)-1-piperazine-ethanesulphonic acid (HEPES) pH 7 and a suitable amount of enzyme was incubated for 60 min. at 30°C. The reaction mixture (10 microliter) was then placed on a precoated silica gel 60 plate having a layer thickness of 0.25 cm (Merck, Darmstadt, West-Germany). A 75% (wt./vol.) phenol/water mixture and in some cases a 4/1/1 (vol./vol./vol.) mixture of n-butanol, acetic acid and water was used as mobile phase. As a control, 2 mM of each standard peptide was also placed on the plate. The silica gels were coloured by spraying them with 0.1% (wt./vol.) ninhydrin in 99% ethanol. Peptides and amino acids became visible after incubation of the silica gel in an oven for 5 min. at 80°C.

[5] = biological target: T1, aminopeptidase of L. lactis subsp. cremoris Wg2; type: biochemical; remark: listed apart in the source
[6] = substrate: NCCCCC(N)C(=O)Nc1ccc([N+](=O)[O-])cc1; assay: purified protein, by the assay type; conditions: other: Lineweaver-Burk plot, substrate of the aminopeptidase; pH 7.0; 30.0 °C

Molecule: C[C@H](N)C(=O)N1CCC[C@H]1C(=O)Nc1ccc([N+](=O)[O-])cc1 [Ala-Pro-pNA] (H-Ala-Pro-pNA)
Relative activity (%) [1]: 4%

Molecule: c1cnc2c(c1)ccc1cccnc12 [1,10-phenanthroline]
inhibition of the enzyme activity by chelating agents (in words) [2]: complete inhibition; also recorded: sensitivity

Molecule: [Mg+2] [Mg⁺⁺]
inhibitory effect of divalent cations on the enzyme activity (in words) [2]: no inhibitory effect at all | restoration of the activity of the enzyme treated with 1,10-phenanthroline (in words) [2]: could not restore the enzyme activity

hydrolysis of p-nitroanilide substrates (in words) [3]: hydrolyses | Relative activity (%) [3]: 24%
Molecule: CC(C)CC(N)C(=O)Nc1ccc([N+](=O)[O-])cc1 (stereo not drawn) [Leu-pNA, leucyl-p-nitroanilide]

Molecule: Leu-Leu
hydrolysis of peptides (in words) [4]: hydrolyses | Activity [4]: +

Molecule: OC(CS)C(O)CS (stereo not drawn) [DTT, dithiotreitol]
effect of chemical reagents on the aminopeptidase activity (in words) [2]: no inhibitory effect; also recorded: insensitive | inactivating effects of pCMB and mersalyl undone by reducing agent (in words) [5]: completely undone

Molecule: CCN1C(=O)C=CC1=O [NEM, N-ethylmaleimide]
effect of chemical reagents on the aminopeptidase activity (in words) [2]: inhibitory effect; also recorded: strong inhibition

Molecule: NC(=O)CI [iodoacetamide]
effect of chemical reagents on the aminopeptidase activity (in words) [2]: inhibitory effect; also recorded: strong inhibition

Molecule: O=C(Nc1ccc([N+](=O)[O-])cc1)C1CCCN1 (stereo not drawn) [Pro-pNA]
Relative activity (%) [3]: < 1%

Relative activity (%) [3]: 8%
Molecule: CSCCC(N)C(=O)Nc1ccc([N+](=O)[O-])cc1 (stereo not drawn) [Met-pNA, methionyl-p-nitroanilide]

Molecule: alanyl-alanine [Ala-Ala]
hydrolysis of peptides (in words) ([4]; listed as ala-ala): does not prove capable of significant hydrolysis | hydrolysis of peptides (in words) ([4]; listed as alanyl-alanine): not | Activity [4]: -

Molecule: [Ca+2] [Ca⁺⁺]
inhibitory effect of divalent cations on the enzyme activity (in words) [2]: no inhibitory effect at all | restoration of the activity of the enzyme treated with 1,10-phenanthroline (in words) [2]: could not restore the enzyme activity

Molecule: carboxybenzoxy-phenylalanyl-alanine
hydrolysis of peptides (in words) [4]: does not seem capable of hydrolysis

Molecule: O=C(O)CN(CCN(CC(=O)O)CC(=O)O)CC(=O)O [EDTA]
inhibition of the enzyme activity by chelating agents (in words) [2]: complete inhibition; also recorded: sensitivity

Molecule: Bradykinin (RPPGFSPFR; Bradykinin; UniProt P01042 381-389, looked up)
hydrolysis of peptides (in words) [4]: hydrolyses; also recorded: can also act on | Activity [4]: +

Molecule: Phe-Leu
hydrolysis of peptides (in words) [4]: does not prove capable of significant hydrolysis | Activity [4]: -

Molecule: N[C@@H](CCC(=O)O)C(=O)Nc1ccc([N+](=O)[O-])cc1 [Glu-pNA]
Relative activity (%) [3]: < 1%

Molecule: O=S(=O)(O)c1cc[c]([Hg][Cl])cc1 [pCMBS, p-chloromercuribenzenesulphonate]
effect of chemical reagents on the aminopeptidase activity (in words) [2]: completely inhibited; also recorded: strong inhibition

Molecule: benzoyl-glycyl-lysine
hydrolysis of peptides (in words) [4]: does not seem capable of hydrolysis

Molecule: CC(N)C(=O)Nc1ccc([N+](=O)[O-])cc1 (stereo not drawn) [Ala-pNA]
Relative activity (%) [3]: 4%

Molecule: carbobenzoxy-prolylalanine
hydrolysis of peptides (in words) [4]: does not seem capable of hydrolysis

Molecule: Phe-Val
hydrolysis of peptides (in words) [4]: does not prove capable of significant hydrolysis | Activity [4]: -

Molecule: PMSF
effect of chemical reagents on the aminopeptidase activity (in words) [2]: insensitive

Molecule: COC(CNC(=O)c1ccccc1OCC(=O)O)[CH2][Hg][OH] (stereo not drawn) [mersalyl, O-(3-hydroxymercuri-2-methoxypropyl) carbamyl phenoxyacetate]
effect of chemical reagents on the aminopeptidase activity (in words) [2]: completely inhibited; also recorded: strong inhibition

Molecule: NC(Cc1ccccc1)C(=O)Nc1ccc([N+](=O)[O-])cc1 (stereo not drawn) [Phe-pNA]
Relative activity (%) [3]: 4%

hydrolysis of p-nitroanilide substrates (in words) [3]: hydrolyses | maximum peptide hydrolysis velocity ([3]; Lineweaver-Burk plot): 1 millimol/min./mg | Relative activity (%) [3]: 100%
Molecule: NCCCCC(N)C(=O)Nc1ccc([N+](=O)[O-])cc1 (stereo not drawn) [Lys-pNA, lysyl-p-nitroanilide]

Molecule: NCC(=O)Nc1ccc([N+](=O)[O-])cc1 [Gly-pNA]
Relative activity (%) [3]: < 1%

Molecule: OCCS [β-mercaptoethanol]
effect of chemical reagents on the aminopeptidase activity (in words) [2]: no inhibitory effect; also recorded: insensitive | inactivating effects of pCMB and mersalyl undone by reducing agent (in words) [5]: completely undone

Molecule: O=C(O)c1cc[c]([Hg][Cl])cc1 [pCMB, p-chloromercuribenzoate]
effect of chemical reagents on the aminopeptidase activity (in words) [2]: completely inhibited; also recorded: strong inhibition

B1: aminopeptidase of L. lactis subsp. cremoris Wg2 (Lactococcus cremoris) (protein)
chain: MAVKRLIETFVPENYKIFLDIDRKTKKIKGQVAITGEAKDTVVAFHAKGLHFNKVRAFSVDTNFIENEEDEEIVVKIGETGRVTVSFEYEAELTDNMMGIYPSYYEVNGEKKMLIGTQFESHFARQAFPSIDEPEAKATFDLSVKFDEEEGDIIVSNMPELLNINGIHVFERTVKMSSYLLAFVFGELQYKKGKTKSGVEVGAFATKAHSQAALDFPLDIAIRSIEFYEDYYQTPYPLPHSWHIALPDFSSGAMENWGCITYREVCMLVDPENATIQSKQYVATVIAHELAHQWFGDLVTMQWWDDLWLNESFANNMEYVCMDALEPSWNVWESFSISEANMALNRDATDGVQSVHVEVTHPDEIGTLFDPAIVYAKGSRLMVMLRKWLGDEDFAAGLALYFKRHQYGNTVGDNLWDALAEVSGKDVAAFMHSWVNQPGYPVVTAEVVDDTLILSQKQFFVGEGVDKGRLWNVPLNTNWTGLPDLLSSEKVEIPGFAALKTKNNGKALFLNDANMAHYIIDYKGALLTDLLSEVESLENVTKFQILQDRKLLAKAGVISYADVVNILPSFTNEESYLVNTGLSQLISELELFVDEDSETEKAFQSLVGKLFAKNYARLGWDKVAGESAGDESLRGIVLSKTLYSENADAKTKASQIFATHKENLASIPADIRPIVLNNEIKTTNSAELVKTYRETYIKTSLQEFKRELEGAVALIKDEKVIAELLESFKNADIVKPQDIAFSWFYLLRNDFSQDAAWAWEKANWASLEEKLGGDMSYDKFVIYPGNTFKTADKLAEYKAFFEPKLENQGLKRSIEMAIKQITARVALIDSQKAAVDKAITDIAEKL
Km [6]: 550 µM | Vmax [6]: 1000 µmol/min. mg protein | kcat [6]: 1580 s⁻¹

Reference: patent publication EP0415470A2, “Aminopeptidase” (CAMPINA MELKUNIE B.V., priority 1989, dated 1991)
